Measured values published in patent US9249129B2, “Morpholino substituted urea derivatives as mTOR inhibitors” (CELLZOME LIMITED, priority 2010, dated 2016).
pIC50: −log10 of the molar value.

What follows are molecules tested on S6RP serine-240/244 phosphorylation in HEK293T/17 cells (assay: In vitro phospho-S6 cellular assay (pS6RP S240/244)). Settings: Homo sapiens, Table 6, 2 hours, S6RP Ser240/244, read-out: pS6 (phospho-S6 cell assay data, activity level).
Assay type: cell-based
Method in brief: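 HEK293T/17 cells in DMEM with 2% FCS treated with 8 compound concentrations (0.1% DMSO) for 2 h at 37 °C, then lysed. Phospho-S6RP Ser240/244 or phospho-Akt Ser473 quantified by MesoScale sandwich immunoassay with Sulfo-Tag detection; IC50 from variable-slope sigmoidal fit.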
CCNC(=O)Nc1ccc(-c2cc(-c3cc(F)ccc3S(C)(=O)=O)nc(N3CCOC[C@@H]3C)n2)cc1 [Example 2, (S)-1-ethyl-3-(4-(6-(5-fluoro-2-(methylsulfonyl)phenyl)-2-(3-methylmorpholino)pyrimidin-4-yl)phenyl)urea] was tested, and the pIC50 was over 7.00.
In the case of C[C@H]1COCCN1c1nc(-c2ccc(NC(=O)NC3CC3)cc2)cc(-c2ccccc2S(C)(=O)=O)n1 [Example 4, (S)-1-cyclopropyl-3-(4-(2-(3-methylmorpholino)-6-(2-(methylsulfonyl)phenyl)pyrimidin-4-yl)phenyl)urea], the pIC50 was over 7.00.
Work on C[C@H]1COCCN1c1cc(-c2ccccc2S(C)(=O)=O)nc(-c2ccc(NC(=O)NC3CC3)cc2)n1 [Example 6, (S)-1-cyclopropyl-3-(4-(4-(3-methylmorpholino)-6-(2-(methylsulfonyl)phenyl)pyrimidin-2-yl)phenyl)urea] yielded a pIC50 of over 7.00.
In the case of C[C@H]1COCCN1c1cc(-c2ccc(F)nc2)nc(-c2ccc(NC(=O)NC3CC3)cc2)n1 [Example 21, (S)-1-cyclopropyl-3-(4-(4-(6-fluoropyridin-3-yl)-6-(3-methylmorpholino)pyrimidin-2-yl)phenyl)urea], the pIC50 was over 7.00.
C[C@H]1COCCN1c1cc(-c2cncc(F)c2)nc(-c2ccc(NC(=O)NC3CC3)cc2)n1 [Example 23, (S)-1-cyclopropyl-3-(4-(4-(5-fluoropyridin-3-yl)-6-(3-methylmorpholino)pyrimidin-2-yl)phenyl)urea] gave a pIC50 of 6.00 to 7.00.
For C[C@H]1COCCN1c1nc(-c2ccc(NC(=O)NC3CC3)cc2)cc(-c2cc(F)ccc2S(C)(=O)=O)n1 [Example 40, (S)-1-cyclopropyl-3-(4-(6-(5-fluoro-2-(methylsulfonyl)phenyl)-2-(3-methylmorpholino)pyrimidin-4-yl)phenyl)urea], the pIC50 was over 7.00.
C[C@H]1COCCN1c1nc(-c2ccc(NC(=O)NCCO)cc2)cc(-c2cc(F)ccc2S(C)(=O)=O)n1 [Example 41, (S)-1-(4-(6-(5-fluoro-2-(methylsulfonyl)phenyl)-2-(3-methylmorpholino)pyrimidin-4-yl)phenyl)-3-(2-hydroxyethyl)urea] was tested, and the pIC50 was over 7.00.
For C[C@H]1COCCN1c1cc(-c2ccccn2)nc(-c2ccc(NC(=O)NC3CC3)cc2)n1 [Example 42, (S)-1-cyclopropyl-3-(4-(4-(3-methylmorpholino)-6-(pyridin-2-yl)pyrimidin-2-yl)phenyl)urea], the pIC50 was 6.00 to 7.00.
Work on C[C@H]1COCCN1c1cc(-c2ccccn2)nc(-c2ccc(NC(=O)NCCO)cc2)n1 [Example 43, (S)-1-(2-hydroxyethyl)-3-(4-(4-(3-methylmorpholino)-6-(pyridin-2-yl)pyrimidin-2-yl)phenyl)urea] yielded a pIC50 of over 7.00.
In the case of C[C@H]1COCCN1c1nc(-c2ccc(NC(=O)NCCF)cc2)cc(-c2cc(F)ccc2S(C)(=O)=O)n1 [Example 44, (S)-1-(4-(6-(5-fluoro-2-(methylsulfonyl)phenyl)-2-(3-methylmorpholino)pyrimidin-4-yl)phenyl)-3-(2-fluoroethyl)urea], the pIC50 was over 7.00.
For C[C@H]1COCCN1c1nc(-c2ccc(NC(=O)NC3CC3)cc2)cc(-c2cccnc2S(C)(=O)=O)n1 [Example 46, (S)-1-cyclopropyl-3-(4-(2-(3-methylmorpholino)-6-(2-(methylsulfonyl)pyridin-3-yl)pyrimidin-4-yl)phenyl)urea], the pIC50 was over 7.00.
Work on C[C@H]1COCCN1c1nc(-c2ccc(NC(=O)NCC(F)F)cc2)cc(-c2cc(F)ccc2S(C)(=O)=O)n1 [Example 47, (S)-1-(2,2-difluoroethyl)-3-(4-(6-(5-fluoro-2-(methylsulfonyl)phenyl)-2-(3-methylmorpholino)pyrimidin-4-yl)phenyl)urea] yielded a pIC50 of over 7.00.
C[C@H]1COCCN1c1ccnc(-c2ccc(NC(=O)Nc3ccncc3)cc2)n1 [Example 60, (S)-1-(4-(4-(3-methylmorpholino)pyrimidin-2-yl)phenyl)-3-(pyridin-4-yl)urea] was tested, and the pIC50 was over 7.00.
For O=C(Nc1ccncc1)Nc1ccc(-c2nccc(N3CC4CCC(C3)O4)n2)cc1 [Example 61, 1-(4-(4-(8-oxa-3-azabicyclo[3.2.1]octan-3-yl)pyrimidin-2-yl)phenyl)-3-(pyridin-4-yl)urea], the pIC50 was over 7.00.
CS(=O)(=O)c1ccc(F)cc1-c1cc(-c2ccc(NC(=O)NCCO)cc2)nc(N2CCOCC2)n1 [Example 62, 1-(4-(6-(5-fluoro-2-(methylsulfonyl)phenyl)-2-morpholinopyrimidin-4-yl)phenyl)-3-(2-hydroxyethyl)urea] showed a pIC50 of 6.00 to 7.00.
For C[C@H]1COCCN1c1nc(-c2ccc(NC(=O)NCCCO)cc2)cc(-c2cc(F)ccc2S(C)(=O)=O)n1 [Example 64, (S)-1-(4-(6-(5-fluoro-2-(methylsulfonyl)phenyl)-2-(3-methylmorpholino)pyrimidin-4-yl)phenyl)-3-(3-hydroxypropyl)urea], the pIC50 was over 7.00.
C[C@H]1COCCN1c1nc(-c2ccc(NC(=O)N[C@H]3CCC[C@@H]3O)cc2)cc(-c2cc(F)ccc2S(C)(=O)=O)n1 [Example 76, 1-(4-(6-(5-fluoro-2-(methylsulfonyl)phenyl)-2-((S)-3-methylmorpholino)pyrimidin-4-yl)phenyl)-3-((1S,2S)-2-hydroxycyclopentyl)urea] gave a pIC50 of over 7.00.
